In data set [1] the test system is human conjunctival epithelial cells. The class given is cell-based. The method, then: The results are from four independent experiments and data points show the mean and standard deviations. The X axis indicates the peptide concentration in μg/ml and the Y axis indicates the % cell viability. The cytotoxicity of V2 dimer were tested against human conjunctival cells according to the method described in WO 2007/126392 and compared with native hBD3. […] Wildtype hBD3 was cytotoxic at concentrations of about 15 μg/ml, however, the V2 dimer was not cytotoxic at concentrations of 100 μg/ml.

Data set [2] has as its system Bacillus cereus ATCC 11778. The class given is cell-based. The method, then:
(§1) MICs was determined by broth macrodilution method modified from that described by the National Committee for Clinical Laboratory Standards (NCCL). The Mueller Hinton Broth (MHB) at ⅙ strength and without addition of Ca^2+ and Mg^2+ was used for dilution. Serial twofold dilutions of V2 dimer solution was prepared in MHB (⅙ strength) in test tubes. 1 ml of inoculum of test organisms in MHB (⅙ strength) was added to 1 ml of each dilution of V2 dimer to yield as final concentration of 10^4 to 10^5 colony forming units/ml in each test tube. The tubes were incubated at 35° C. for 16 to 20 hours. A positive control containing only the broth and organism, and a negative control tube containing only the broth were also incubated in parallel to the test samples. The above was repeated for each different test organism in separate experiments. The MIC of V2 dimer peptide for each clinical isolate or reference organism was read as the lowest concentration of peptide that inhibited visible growth of the test organism.
(§2) The MIC was also determined for other peptides and compared to gentamicin.

Data set [3] deals with Candida albicans ATCC10231. The class given is cell-based. The procedure:
as §1, §2

Data set [4] relates to Clinical Escherichia coli DB16027 Source: Blood. The class given is cell-based. Particulars: Clinical DB16027 Source: Blood. The method, then: as §1, §2
Data set [5] relates to Clinical Escherichia coli DU46381R Source: Urine. The class given is cell-based. The method, then:
as §1, §2

In data set [6] the test system is Clinical Pseudomonas aeruginosa 07DM 023257 Source: Eye. The class given is cell-based. Particulars: Clinical 07DM 023257 Source: Eye. The procedure:
as §1, §2

Data set [7] relates to Clinical Pseudomonas aeruginosa 07DM023376 Source: Eye. The class given is cell-based. Particulars: Clinical 07DM023376 Source: Eye. The method, then:
as §1, §2

The test system of data set [8] is Clinical Pseudomonas aeruginosa DM 023104 Source: Eye. The class given is cell-based. Conditions: Clinical DM 023104 Source: Eye. The method, then:
as §1, §2

In data set [9] the test system is Clinical Pseudomonas aeruginosa DM 023155 Source: Eye. The class given is cell-based. Conditions: Clinical DM 023155 Source: Eye. The method, then:
as §1, §2

Data set [10] has as its system Clinical Pseudomonas aeruginosa PAE 230 DR4877/07 Source: Sputum. The class given is cell-based. Particulars: Clinical PAE 230 DR4877/07 Source: Sputum. The procedure: as §1, §2
The test system of data set [11] is Clinical Pseudomonas aeruginosa PAE 239 DM5790/07 Source: Wound. The class given is cell-based. Particulars: Clinical PAE 239 DM5790/07 Source: Wound. The procedure:
as §1, §2

Data set [12] relates to Clinical Pseudomonas aeruginosa PAE 240 DU14476/07 Source: Urine. The class given is cell-based. Conditions: Clinical PAE 240 DU14476/07 Source: Urine. The method, then:
as §1, §2

Data set [13] has as its system Clinical Pseudomonas aeruginosa PAE 249 DM15013 Source: Wound. The class given is cell-based. Conditions: Clinical PAE 249 DM15013 Source: Wound. The procedure:
as §1, §2

Data set [14] relates to Clinical Staphylococcus aureus DM4001 Source: Eye. The class given is cell-based. The procedure:
as §1, §2

The subject of data set [15] is Escherichia coli ATCC25922. The class given is cell-based. The procedure:
as §1, §2

In data set [16] the test system is Fusarium solani ATCC 36031. The class given is cell-based. The method, then:
as §1, §2

The subject of data set [17] is Methicillin-resistant staphylococcus aureus (MRSA) DM09808R Source: Eye. The class given is cell-based. Conditions: Methicillin-resistant DM09808R Source: Eye. The method, then:
as §1, §2

Data set [18] relates to Pseudomonas aeruginosa ATCC 27853. The class given is cell-based. The method, then: as §1, §2
Data set [19] relates to Clinical Cadida albicans DF2672R Source: Urine. The class given is cell-based, Candida albicans. The procedure:
as §1, §2

The test system of a further data set is Kp ATCC 10031. The class given is cell-based, Klebsiella pneumoniae. Conditions: ATCC 10031, 24 h. The method, then:
The minimum inhibitory concentration (MIC) was determined using a broth microdilution method. Different strains of bacterial cells were grown in Mueller Hinton Broth (MHB) overnight. 100 μl of adjusted inoculum in MHB was added to 100 μl of each dilution of peptide or antibiotics dissolved in the broth, so as to yield a final cell density of 10^5 to 10^6 cfu/ml in each well of a microtitre plate. Additional microtitre plates may be used as necessary, if more wells are required for the assay or duplicate plates are required. The microtitre plates were incubated at 35° C. for 24 h and the absorbance at 600 nm (OD600) was monitored every 30 minutes. […] A positive control well contained the broth and organisms (no peptides/antibiotics), and a negative control well contains only the broth. The MIC of peptides for each clinical isolate or reference organism was recorded as the lowest concentration of peptide/antibiotic that inhibited visible growth of the test organism. […]

The subject of the next data set is LPS. The experiment in a line: Competitive inhibition assay: effect of exogenous LPS on inhibitory activity. The class given is cell-based. Conditions: peptide at 1×MIC in MHB; compared to B2088; FIG. 10(C). The procedure:
Effect of LPS and Mg^2+ on MIC: To examine the interaction of peptide and LPS, the concentration of the latter was added exogenously from (0.001-100 mg/ml) in MHB at a peptide concentration of 1×MIC. The % inhibition was estimated and the amount of LPS required for 50% of antibacterial activity (IC50) was determined.

The subject of a further data set is PA 28753. The data set can be described thus: Bacterial viability assay (ED50). The class given is cell-based, Pseudomonas aeruginosa. Particulars: 10 mM phosphate buffer; 37° C.; 22 h; read-out: ED50 (Effective dose to kill 50% of bacterial cells). The method, then: (§3) Cell viability was conducted for two Gram-negative bacteria (Pa 9027 and Pa 27853). The cultures were grown overnight on trypticase soy (TS) agar and a few isolated colonies were inoculated to achieve a turbidity equivalent to 0.5 McFarland standard. The cell concentration was adjusted to 10^6 CFU/ml with 10 mM phosphate buffer and separated into different tubes to get final concentration of 10^5 CFU/ml. The peptides were added to the individual tubes to obtain concentrations of ⅛ MIC, ¼ MIC, ½ MIC, 1 MIC, 2 MIC and 4 MIC. The tubes were incubated at 37° C. for 22 h. Serial dilution was performed and 100 μL of the suspension was aliquot onto Mueller Hinton Agar (MHA) plate. The plates were incubated for 24 h at 37° C. for colony counting. Positive control was performed at Oh and 22h.

Another data set deals with PA 9027. The experiment in a line: Bacterial viability assay (ED50). The class given is cell-based, Pseudomonas aeruginosa. The method, then:
as §3

A further data set deals with P. aeruginosa. The data set can be described thus: Time-kill kinetics assay. The class given is cell-based, Pseudomonas aeruginosa. Particulars: both Pseudomonas strains; 1× and 2×MIC; USP phosphate buffer pH 7.2; 35° C.; FIG. 12. The procedure: The kinetics of bactericidal action was performed by the assay reported before. Briefly, few colonies of overnight grown P. aeruginosa strains were collected from tryptic soy agar plate and suspended in US pharmacopeia phosphate buffer (pH 7.2). The suspension was adjusted to an initial inoculum of 10^6 CFU/mL and incubated with various concentrations of B2088 and B2088—99 at 35° C. 0.1 ml aliquots were withdrawn at various time intervals, diluted 10^2-10^4 fold using the same buffer, plated on tryptic soy agar plates and incubated at 35° C. The colonies were counted after 24 h incubation and expressed as CFU/ml. Buffer without peptides served as a positive control and % bacterial viability is estimated using the following equation: Bacterial viability=1−(CFU/mL)peptide/(CFU/mL)control*100

The next data set has as its system P. aeruginosa ATCC 9027. The experiment in a line: Outer membrane (OM) permeability assay (NPN uptake). The class given is cell-based, Pseudomonas aeruginosa. Conditions: 5 mM HEPES buffer pH 7.2; 10 μM NPN; FIG. 13. The method, then:
The membrane impermeable probe N-phenyl-1-naphthyl amine (NPN) was used to probe the OM permeability of peptides. An overnight culture of P. aeruginosa ATCC 9027 was harvested by centrifugation (3000 rpm, 4° C.). The pellet was washed 2 times and resuspended in 5 mM HEPES buffer (pH 7.2) to OD600 of 0.4. The cells were placed in a 10 mm stirred cuvette and NPN was added to a final concentration of 10 μM. Appropriate concentrations of B2088 was added and the increase in fluorescence intensity was monitored on a Quanta Master fluorescence spectrophotometer (Photon Technology International, New Jersey, USA). The excitation and emission wavelengths were set at 350 and 410 nm with slid widths at 2 and 5 nm, respectively. The % NPN uptake was calculated relative to the increase in NPN fluorescence intensity after the addition of 50 μM polymyxin B.
The peptide concentration required to cause 50% increase in the NPN fluorescence intensity (PC50) was measured.

The structures appear in SMILES notation. ≈ marks a conversion by molar mass, not a printed value. Bridge positions count the residues as written; N and C are the ends. Peptide text beside a SMILES is read from it. I, II: the chains in the order shown.

As a reminder, the MIC is the smallest concentration in the dilution series that meets the test's criterion for growth inhibition. A lower MIC goes with a more susceptible organism. On to `CC(C)[C@H](NC(=O)[C@H](CCCCN)NC(=O)[C@H](CCCNC(=N)N)NC(=O)CNC(=O)[C@@H](N)CCCNC(=N)N)C(=O)N[C@H](C(=O)N[C@@H](CCCNC(=N)N)C(=O)N[C@@H](CCCNC(=N)N)C(=O)NCCCC[C@H](NC(=O)[C@H](CCCNC(=N)N)NC(=O)[C@H](CCCNC(=N)N)NC(=O)[C@@H](NC(=O)[C@@H](NC(=O)[C@H](CCCCN)NC(=O)[C@H](CCCNC(=N)N)NC(=O)CNC(=O)[C@@H](N)CCCNC(=N)N)C(C)C)C(C)C)C(=O)N[C@@H](CCCCN)C(=O)O)C(C)C` [V2 dimer, (SEQ ID NO: 44)2KK] (I: H-RGRKVVRRKK-OH / II: H-RGRKVVRR; amide I:9-II:C), for which the “cytotoxicity in comparison with native hBD3” value in data set [1] is recorded as “does not show cytotoxicity”. Further, the MIC in data set [2] is 12.5 µg/mL (≈ 5.46 µM); in [3] it was 12.5 µg/mL (≈ 5.46 µM); in data set [4] it was 6.25 µg/mL (≈ 2.73 µM); in [5], 6.25 µg/mL (≈ 2.73 µM); in data set [6] it was 12.5 µg/mL (≈ 5.46 µM); in [7], 12.5 µg/mL (≈ 5.46 µM). Besides, the MIC in [8] was found to be 12.5 µg/mL (≈ 5.46 µM); in data set [9], 12.5 µg/mL (≈ 5.46 µM); in data set [10], 12.5 µg/mL (≈ 5.46 µM); in data set [11], 12.5 µg/mL (≈ 5.46 µM); in [12] it was 6.25 µg/mL (≈ 2.73 µM); in [13], 6.25 µg/mL (≈ 2.73 µM). The MIC in [14] turned out to be 12.5 µg/mL (≈ 5.46 µM); in data set [15], 12.5 µg/mL (≈ 5.46 µM); in data set [16], 25 µg/mL (≈ 10.9 µM); in data set [17] it was 12.5 µg/mL (≈ 5.46 µM); in data set [18], 12.5 µg/mL (≈ 5.46 µM); in [19], 12.5 µg/mL (≈ 5.46 µM). Further, in the data set with Kp ATCC 10031, the “Minimum inhibitory concentration (MIC)” value was found to be 1.4 µM (≈ 3.21 µg/mL).

Regarding `N=C(N)NCCC[C@H](NC(=O)CNC(=O)CNC(=O)[C@H](CCCCN)NC(=O)[C@H](CCCNC(=N)N)NC(=O)CNC(=O)[C@@H](N)CCCNC(=N)N)C(=O)N[C@@H](CCCNC(=N)N)C(=O)NCCCC[C@H](NC(=O)[C@H](CCCNC(=N)N)NC(=O)[C@H](CCCNC(=N)N)NC(=O)CNC(=O)CNC(=O)[C@H](CCCCN)NC(=O)[C@H](CCCNC(=N)N)NC(=O)CNC(=O)[C@@H](N)CCCNC(=N)N)C(=O)N[C@@H](CCCCN)C(=O)O` [B2088_99, (RGRKGGRR)2KK] (I: H-RGRKGGRRKK-OH / II: H-RGRKGGRR; amide I:9-II:C; N-terminus assumed), the “Minimum inhibitory concentration (MIC)” value in the data set on Kp ATCC 10031 stood at 1.5 µM (≈ 3.18 µg/mL). Besides, in the data set on LPS, the “concentration of LPS to suppress the inhibitory activity” value is recorded as “higher concentration of LPS”. Besides, the EC50 in the data set on PA 28753 amounted to 480 ± 30 nM; with PA 9027 (10 mM phosphate buffer, 37° C., 22 h, read-out: ED50 (Effective dose to kill 50% of bacterial cells)), 330 ± 50 nM. In addition, in the data set with PA 9027 (Pa 9027 and Pa 27853, Table 22 and FIG. 11), the “ED50 compared with B2088” value is listed as “two times lower”. Further, in the data set with P. aeruginosa, the kill kinetics entry is recorded as “faster kill kinetics”. Further, the “PC50 (peptide concentration to cause 50% increase in NPN fluorescence intensity)” value with P. aeruginosa ATCC 9027 is “higher than B2088”.

Source of the values: patent US9220264B2, “Multimeric forms of antimicrobial peptides” (Singapore Health Services Pte Ltd., priority 2008, dated 2015).
